In one experiment the target is T1, PBR (Mus musculus, UniProt P50637).
T1 construct: inferred from vector pET15b with insertion at NdeI) (N); made in house; host or cells: Escherichia coli BL21(DE3), IPTG-induced; whole bacteria or bacterial membranes
The experiment can be described thus: Ligand-induced release of 3H-cholesterol from membranes of IPTG-induced transformed bacteria. The settings on record: Fig. 3F. In kind it is biochemical.

A further experiment concerns the target T2, recombinant mPBR (Mus musculus, UniProt P50637).
T2 construct: inferred from vector pET15b with insertion at NdeI) (N); made in house; host or cells: Escherichia coli BL21(DE3), IPTG-induced; whole bacteria or bacterial membranes
The experiment can be described thus: 3H-PK 11195 radioligand binding to IPTG-induced recombinant PBR in E. coli (Scatchard analysis). To be noted: 3H-PK 11195 binding, IPTG-induced E. coli transfected with mouse PBR cDNA.

The test system of a further experiment is isolated mitochondria. To be noted: cited from earlier work.

Method for recombinant mPBR: Binding specificity of the IPTG-induced PBR in E. coli was determined in binding studies where specific binding of ^3H-PK 11195 (1.0 nM) was measured in the presence of the indicated concentrations of the indicated ligands.
Radioligand binding assays- ^3H-1- (2-chlorophenyl)-N-methyl-N-(1-methyl-propyl)-3-isoquinolinecarboxamide (PK 11195) binding studies were performed as we previously described (Papadopoulos, V. et al. 1990, J. Biol. Chem. 265: 3772-3779; Garnier, M. et al. 1994, Mol. Pharm. 45:201-211). The dissociation constant (Kd) and the number of binding sites (Bmax) were determined by Scatchard plot analysis of the data using the LIGAND program (Munson, P. J. and Rodbard, D. 1980, Anal. Biochem. 107:220-239).

Take `CCC(C)N(C)C(=O)c1cc2ccccc2c(-c2ccccc2Cl)n1` (centres unmarked) [PK 11195, 1-(2-chlorophenyl)-N-methyl-N-(1-methyl-propyl)-3-isoquinolinecarboxamide]: at PBR, the “release of cholesterol from cholesterol-loaded bacterial membranes” value is listed as “cholesterol was liberated from the membranes”. In addition, at recombinant mPBR, the Bmax is given as 0.23 pmol/mg protein and the Kd (usually the equilibrium constant for the complex coming apart) stood at 1.1 nM. Turning to “ODN: octadecaneuropeptide (DBI33-50) (KQATVGDINTERPGMLDF; Octadecaneuropeptide; UniProt P07108 33-50, looked up, fragment)”, the “ability to mimic the effect of DBI on mitochondrial steroidogenesis” value with isolated mitochondria is “not”.

On to “TTN: triakontatetrapeptide, naturally occurring processing product of DBI (KTKPSDEEMLFIYGHYKQATVGDINTERPGMLDF; Triakontatetraneuropeptide; UniProt P07108 17-50, looked up, fragment)”, for which the “ability to mimic the effect of DBI on mitochondrial steroidogenesis” value with isolated mitochondria is “able to mimic the effect of DBI”.
